According to patent US20250127905A1, “GLUTARIMIDE COMPOUND AND USE THEREOF” (MEDSHINE DISCOVERY INC., priority 2021, published 2025):
Where a name gives a salt, the structure may show the parent alone.

Assays:
[1] = target: T1, IRAK4 (Homo sapiens, UniProt Q9NWZ3); assay: Target protein degradation effect in K562 IRAK4-HiBiT cells (Nano-Glo HiBiT); assay type: cell-based; conditions: incubated 16 to 18 hours
T1 construct: expressed in transfected cells; host or cells: K562 IRAK4-HiBiT cells
T1 sequence (Q9NWZ3 1-460): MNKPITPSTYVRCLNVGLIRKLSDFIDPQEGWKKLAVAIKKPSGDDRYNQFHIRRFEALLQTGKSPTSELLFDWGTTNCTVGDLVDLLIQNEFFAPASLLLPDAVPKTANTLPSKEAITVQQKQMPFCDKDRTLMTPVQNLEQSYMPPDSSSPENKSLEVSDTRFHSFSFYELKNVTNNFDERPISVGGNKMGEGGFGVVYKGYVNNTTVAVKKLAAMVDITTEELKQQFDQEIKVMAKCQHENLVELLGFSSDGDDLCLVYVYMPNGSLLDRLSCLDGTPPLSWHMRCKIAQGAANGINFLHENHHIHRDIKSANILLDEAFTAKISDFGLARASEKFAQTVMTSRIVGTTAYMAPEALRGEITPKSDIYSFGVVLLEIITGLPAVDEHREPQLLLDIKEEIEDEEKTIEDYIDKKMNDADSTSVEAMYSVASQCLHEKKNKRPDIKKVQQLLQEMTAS
Experimental: Experimental purpose: In this experiment, the degradation effect of the test compound on the target protein IRAK4 in K562 IRAK4-HiBiT cells was detected.
• Cells: K562 IRAK4-HiBiT cells • Culture media: RPMI 1640+10% FBS+2 mM GlutaMax+1 mM sodium pyruvate+penicillin/streptomycin • Positive control: 1000 nM; negative control: 0.1% DMSO
• (1). The compound to be tested in powder form was dissolved in DMSO to 10 mM as a storage concentration, and 9 μL of the 10 mM compound to be tested was manually pipetted to column 1 and column 13 of an LDV plate using a pipette; • (2). 6 μL of DMSO was added to columns 2 to 12 and 14 to 24 using Multidrop Combi; [0688](3). the compound to be tested was 3-fold diluted (3 μL+6 μL) from columns 1 to 11 and 13 to 23 using Bravo; • (4). 25 nL of compound solution (columns 1 to 24 of the LDV plate) was transferred to an assay plate using Echo according to the plate layout; • (5). 25 nL of 1 mM positive control solution was transferred to the assay plate as a 100% degradation control (i.e., LC, HPE) and 25 nL of DMSO was transferred to the assay plate as a 0% control (i.e., HC, ZPE) using Echo.
• (1). The cell culture medium was discarded, and the cells were washed once with DPBS, digested with trypsin, and counted to prepare a cell suspension of […]; • (2). 25 µL/well of cell suspension was added to the assay plate containing the compound to be tested using Multidrop Combi at medium speed; • (3). the assay plate containing cells was returned to an incubator with 5% CO2 at 37° C. and incubated for 16 to 18 hours.
• (1). 25 µL/well of assay reagent (NanoGlo lysis buffer+substrate+LgBit protein) was added to the assay plate using Multidrop Combi at high speed, and the plate was shaken for 10 minutes; • (2). the plate was centrifuged at 2000 rpm for 1 minute to remove air bubbles; • (3). the plate was read on Envision using US Luminescence detection method.
The inhibition rate (IR) of the test compound was calculated using the following formula: IR (%)=(RLU vehicle control−RLU compound)/(RLU vehicle control−RLU positive control)×100%, and the vehicle control is the blank control. The inhibition rates of compounds at different concentrations were calculated in Excel, and then XLFit software was used to plot inhibition curves and calculate relevant parameters, including minimum inhibition rate, maximum inhibition rate, and DC50.

[2] = Pharmacokinetic evaluation in mice, experimental operation A (CD-1); assay type: in vivo; conditions: CD-1 mice; for bioavailability / clearance / Vd / half-life: male, mouse, plasma; for bioavailability: IV 1 mg/kg, PO 10 mg/kg, read-out: Bioavailability F; for Vd: read-out: Apparent volume of distribution; for half-life: read-out: Elimination half-life (converted)
Excerpt: In this study, CD-1 or C57BL/6N male mice were selected as test animals, and LC/MS/MS method was used to quantify plasma concentrations of the test compound intravenously injected or intragastrically administered to mice at different time points, so as to evaluate the pharmacokinetic profile of the test drug in mice.
CD-1 mice (male, 20 to 35 g, 7 to 10 weeks old, Beijing Vital River) or C57BL/6N mice (male, 20 to 30 g, 7 to 10 weeks old, Beijing Vital River)
A clarified solution or suspension of the test compound was injected into CD-1 mice (overnight fasting) via the tail vein (vehicle: 10% DMSO/10% Solutol/80% H2O), or intragastrically administered into CD-1 mice (overnight fasting). For intravenous injection, blood was collected from the saphenous vein at 0 h (pre-administration) and 0.083 h, 0.25 h, 0.5 h, 1 h, 2 h, 4 h, 8 h, and 24 h after administration, and placed in an anticoagulant tube added with EDTA-K2. The mixture was thoroughly vortexed and mixed, and centrifuged at 3200 g for 10 minutes at 4° C. to obtain plasma. For oral administration, blood was collected from the saphenous vein at 0.25 h, 0.5 h, 1 h, 2 h, 4 h, 8 h, and 24 h after administration, and placed in an anticoagulant tube added with EDTA-K2 (Jiangsu Kangjian Medical Apparatus Co., Ltd.). The mixture was thoroughly vortexed and mixed, and centrifuged at 3200 g for 10 minutes at 4° C. to obtain plasma. Plasma concentrations were determined by LC-MS/MS method, and relevant pharmacokinetic parameters were calculated using Phoenix WinNonlin™ Version 6.3 (Pharsight, Mountain View, CA) pharmacokinetic software with non-compartmental model linear-log trapezoidal method.

[3] = Intragastric administration 10 mg/kg

Row | Structure (SMILES) | DC50 [1] | Maximum inhibition rate [1] | also measured
1 | O=C1CCC(c2noc3c(NC(=O)CN4CCN(C[C@H]5CC[C@H](n6cc(NC(=O)c7cnn8ccc(N9CC%10CCC(C9)O%10)nc78)c(C(F)F)n6)CC5)CC4)cccc23)C(=O)N1 (stereo partly drawn) [Formate of WX018] | 9.11 nM | 97.79% | 
2 | O=C1CCC(c2noc3c(CC(=O)NC4CCN(C[C@H]5CC[C@H](n6cc(NC(=O)c7cnn8ccc(N9C[C@H]%10C[C@@H]9CO%10)nc78)c(C(F)F)n6)CC5)CC4)cccc23)C(=O)N1 (stereo partly drawn) [Formate of WX023] | 2.55 nM | 103.01% | 
3 | O=C1CCC(c2coc3cc(NC(=O)CN4CCN(C[C@H]5CC[C@H](n6cc(NC(=O)c7cnn8ccc(N9C[C@H]%10C[C@@H]9CO%10)nc78)c(C(F)F)n6)CC5)CC4)ccc23)C(=O)N1 (stereo partly drawn) [Hydrochloride of WX002] | 24.3 nM | 56.72% | 
4 | O=C1CCC(c2coc3c(C#CCOC4CCN(C[C@H]5CC[C@H](n6cc(NC(=O)c7cnn8ccc(N9C[C@H]%10C[C@@H]9CO%10)nc78)c(C(F)F)n6)CC5)CC4)cccc23)C(=O)N1 (stereo partly drawn) [Hydrochloride of WX003] | 25.5 nM | 100.06% | Area under the drug-time curve (0-inf) [2, 3]: 4.83 µM·h; Peak concentration [2, 3]: 0.61 µM; Time to peak concentration [2, 3]: 4.0 h; Area under the drug-time curve (0-inf) ([2]; Intravenous injection 1 mg/kg): 1.72 µM·h; bioavailability [2]: 28.2%; clearance ([2]; Intravenous injection 1 mg/kg): 11.7 mL/min/kg; Vd ([2]; Intravenous injection 1 mg/kg): 1.71 L/kg; half-life ([2]; Intravenous injection 1 mg/kg): 104 min
5 | O=C1CCC(c2coc3c(NC(=O)CN4CCN(C[C@H]5CC[C@H](n6cc(NC(=O)c7cnn8ccc(N9C[C@H]%10C[C@@H]9CO%10)nc78)c(C(F)F)n6)CC5)CC4)cccc23)C(=O)N1 (stereo partly drawn) [Hydrochloride of WX006] | 12.9 nM | 97.11% | Area under the drug-time curve (0-inf) [2, 3]: 7.73 µM·h; Peak concentration [2, 3]: 1.73 µM; Time to peak concentration [2, 3]: 1.0 h; Area under the drug-time curve (0-inf) ([2]; Intravenous injection 1 mg/kg): 1.18 µM·h; bioavailability [2]: 65.6%; clearance ([2]; Intravenous injection 1 mg/kg): 16.8 mL/min/kg; Vd ([2]; Intravenous injection 1 mg/kg): 1.47 L/kg; half-life ([2]; Intravenous injection 1 mg/kg): 61.8 min
6 | O=C1CCC(c2coc3ccc4c(NC(=O)CN5CCN(C[C@H]6CC[C@H](n7cc(NC(=O)c8cnn9ccc(N%10C[C@H]%11C[C@@H]%10CO%11)nc89)c(C(F)F)n7)CC6)CC5)cccc4c23)C(=O)N1 (stereo partly drawn) [Hydrochloride of WX010] | 6.54 nM | 74.90% | 

The next lines start with results.

Row | DC50 [1] | Maximum inhibition rate [1] | Structure (SMILES) | also measured
7 | 4.29 nM | 85.62% | O=C1CCC(c2noc3ccc4c(NC(=O)CN5CCN(C[C@H]6CC[C@H](n7cc(NC(=O)c8cnn9ccc(N%10C[C@H]%11C[C@@H]%10CO%11)nc89)c(C(F)F)n7)CC6)CC5)cccc4c23)C(=O)N1 (stereo partly drawn) [Hydrochloride of WX014] | 
8 | 34.2 nM | 112.11% | O=C1CCC(c2coc3c(NC(=O)C(F)(F)C4CCN(C[C@H]5CC[C@H](n6cc(NC(=O)c7cnn8ccc(N9C[C@H]%10C[C@@H]9CO%10)nc78)c(C(F)F)n6)CC5)CC4)cccc23)C(=O)N1 (stereo partly drawn) [Hydrochloride of WX016] | 
9 | 7.02 nM | 115.78% | O=C1CCC(c2noc3c(NC(=O)C(F)(F)C4CCN(C[C@H]5CC[C@H](n6cc(NC(=O)c7cnn8ccc(N9C[C@H]%10C[C@@H]9CO%10)nc78)c(C(F)F)n6)CC5)CC4)cccc23)C(=O)N1 (stereo partly drawn) [Hydrochloride of WX017] | 
10 | 5.43 nM | 100.80% | O=C1CCC(c2noc3c(CCCN4CCN(C[C@H]5CC[C@H](n6cc(NC(=O)c7cnn8ccc(N9C[C@H]%10C[C@@H]9CO%10)nc78)c(C(F)F)n6)CC5)CC4)cccc23)C(=O)N1 (stereo partly drawn) [Hydrochloride of WX020] | 
11 | 2.59 nM | 102.77% | O=C1CCC(c2noc3c(NC(=O)CN4CCC(CN5CCC(n6cc(NC(=O)c7cnn8ccc(N9C[C@H]%10C[C@@H]9CO%10)nc78)c(C(F)F)n6)CC5)CC4)cccc23)C(=O)N1 (stereo partly drawn) [Hydrochloride of WX021] | 
12 | 7.14 nM | 103.04% | O=C1CCC(c2noc3c(CCCOC4CCN(C[C@H]5CC[C@H](n6cc(NC(=O)c7cnn8ccc(N9C[C@H]%10C[C@@H]9CO%10)nc78)c(C(F)F)n6)CC5)CC4)cccc23)C(=O)N1 (stereo partly drawn) [Hydrochloride of WX022] | 
13 | 1.37 nM | 109.35% | O=C1CCC(c2noc3c(NC(=O)CN4CCC(O[C@H]5CC[C@H](n6cc(NC(=O)c7cnn8ccc(N9C[C@H]%10C[C@@H]9CO%10)nc78)c(C(F)F)n6)CC5)CC4)cccc23)C(=O)N1 (stereo partly drawn) [WX024] | 
